Test results published in US20250381165A1, “Method of Use for Benzofuran Compounds” (Tampa Bay Research Institute, Inc., priority 2024, published 2025).
≈ marks a conversion by molar mass, not a printed value.

Key:
[1] = system: MHC class I H-2Kb on IMG cells; assay: Surface MHC class I H-2Kb on IMG cells (AF6-88.5.5.3 flow cytometry); assay type: cell-based, murine; details: 25 μg/mL
Protocol: By using an MHC class I H-2K^b specific antibody, a relative comparison of the surface MHC class I was measured before and after BzFβ treatment of DC2.4 and IMG cells. […] Cells were centrifuged and washed using cold FACS buffer (DPBS with 5% FBS, 2 mM EDTA, 0.1% sodium azide). Cells were blocked with Fc block (bioLegend™; cat. no. 101320) for 10 min to 15 min to inhibit non-specific binding, followed by staining with fluorophore-conjugated antibodies; one set of cells was stained with the PE-labeled MHC/SIINFEKL specific antibody (clone 25-D1.16, Invitrogen™, Thermo Fisher Scientific Inc., Waltham, MA; cat. no. 12-5743-82), and the other set was stained with the PE-labeled MHC class I H-2Kb specific antibody (AF6-88.5.5.3,Invitrogen™, Thermo Fisher Scientific Inc., Waltham, MA; cat. no. 12-5958-82) PE-labeled MHC class I H-2kb specific (clone AF6-88.5.5.3; Invitrogen™, Thermo Fisher Scientific Inc., Waltham, MA; cat. no. 12-5958-82), for 30 min at 4° C. After washing, the cells were subjected to flow cytometric analysis with the Attune NxT Flow Cytometer (Invitrogen). Cells were gated based on live single-cell populations and positives were assessed using isotype controls and fluor-minus-one analysis when needed. Data were analyzed using the Attune NxT software or FlowJo versions 10.7 and 10.8.

B3Z cells = assay: Direct treatment of B3Z cells; assay type: cell-based, murine; details: BzFβ alone; data not shown
[2] = Solubility in alkaline water; assay type: physicochemical; details: pH 10, aqueous buffer, read-out: limit to the solubility in alkaline water (converted)
Protocol: Mice were gavaged with BzFβ at doses ranging from 25 mg/kg body to 100 mg/kg body weight, injected intravenously (iv) with 50 μg BzFβ or injected intramuscularly with BzFβ at 25 to 40 mg/kg body weight. For two weeks post-treatment, water intake and weight were monitored. […] The limit to the solubility of BzFβ in alkaline water is 4 mg, therefore no further doses were tested.

[3] = Detection of BzFβ in serum by HPLC; assay type: in vivo, C57BL/6NCrl mice
Protocol: Six- to ten-week-old male and female C57BL/6NCrl mice (Charles River Laboratories, Wilmington MA; cat. no. 027) were used for all animal studies. The mice were maintained in accord with the NIH Guide for the Care and Use of Laboratory Animals. Experimental procedures were performed in accord with research protocols approved by the Tampa Bay Research Institute's Institutional Animal Care and Use Committee. Mice were maintained in an INOVIVE individually ventilated cage system with 3 mice per cage containing 100% virgin wood pulp bedding (Harlan Teklad™, Harlan Sprague Dawley Inc., Indianapolis, IA; cat. no. 7099). Water and food (Harlan Teklad™, cat. no. 8640) were available ad libitum. The mice were maintained on a cycle of 12 h of light and 12 h of dark in an environment with a temperature of 74-76° […]. and 40-60% humidity. All cages underwent 40 air changes hourly in the negative pressure mode, in accordance with manufacturer's recommendations. Both the intake and exhaust air from the system were filtered through HEPA filters to maintain a clean environment. Stock solutions of BzFβ were solubilized in alkaline water (pH 10) and then sterile filtered through 0.22 µm syringe filters. BzFβ used for iv or im injections was diluted in 0.9% saline (normal saline). The stock solutions of the SIINFEKL peptide were prepared in 1× calcium/magnesium free Dulbecco's phosphate-buffered saline (DPBS; ThermoFisher Scientific, cat. no. 14190144).
After overnight fasting, six-to ten-week-old mice were gavaged with 1-2 mg of BzFβ solubilized in 200 μL alkaline water or were injected intramuscular (IM) or intravenous with 100 μg diluted in normal saline. After various times mice were anesthetized using 2.0% isoflurane with O2 at 1 L/min, and 200-500 μL of blood was collected in a microfuge tube containing 700 μL of 50 mM EDTA in DPBS as an anticoagulant. The blood samples were centrifuged at 4500×g for 20 min to separate the plasma from the cells. The resulting plasma (200 μL) was removed and extracted with 4 mL methanol. This mixture was vortexed for 30 s and centrifuged at 4000×g for 10 min at 4° C. The supernatant was collected and dried using a SpeedVac (SC210 Å) under a vacuum of 0.4 torr at 65° C. When dry, the sample was removed and resuspended in 100 μL methanol and then re-centrifuged to remove any precipitates. A 20 μL sample of this mixture was analyzed by HPLC.
BzFβ was detected in the serum using a Shimadzu high performance liquid chromatography (HPLC) system. The Shimadzu system consisted of two LC-20AR pumps, a SPD-M20A diode array UV-Vis detector, and a 20 μL injection loop onto a Phenomenex Luna […] Analytical PFP column 100 A (cat. no. OOF-4448-E0). Analysis and data collection were conducted using Shimadzu LabSolutions software. Samples ([…]) were injected onto the column and separated using a gradient of acetonitrile (ACN) and water as the mobile phase. The gradient started with 10% ACN and increased stepwise to 80% ACN for peak clarity. Buffer B was water adjusted to pH 2.5 using phosphoric acid. The column was kept at a constant temperature of 30° C. (Chai, et al., Comprehensive study of the intestinal absorption of four phenolic compounds after oral administration of Ananas comosus leaf extract in vivo and in vitro. Afr J Pharm Pharmacol. 2013 Jul. 15; 7(26):1781-92).
Following up on the prediction that BzFβ should be able to be absorbed through the GI tract and gain access to the systemic circulation, C57Bl/6crl mice were gavaged (po) with either 200 μL of alkaline water (negative control) or with 2 mg of BzFβ solubilized in 200 μL alkaline water. Fifteen minutes later, peripheral blood was obtained. The serum was extracted with methanol, lyophilized, and then examined by HPLC for the presence of BzFβ. […] BzFβ was then administered to another group of mice iv (100 μg), im ([…]), and po (1 mg). After 15 min, the serum was collected, extracted with methanol, and then analyzed by HPLC. […]

## O=C(O)/C=C/c1ccc2occc2c1 [BzFβ, (2E)-3-(1-benzofuran-5-yl)prop-2-enoic acid]
[1]; 1-4 h
  overall surface expression (MFI) of MHC class I: no significant effect
[1]; 24 h
  overall surface expression (MFI) of MHC class I: significant increase
B3Z cells
  effect of direct treatment on B3Z viability or activation: no effect on cell viability or cell activation
[2]
  solubility: 20 mg/mL (≈ 106 mM)
[3]; 1, 2 and 3 h post im injection of 1 mg
  persistence in serum: still detectable
[3]; GI tract and bloodstream
  stability in vivo compared with dipeptides: much more stable in the GI tract and bloodstream
[3]; iv (100 μg), im (100 g), po (1 mg), 15 min
  presence in serum by HPLC: presence of the appropriate peak
[3]; oral administration
  earliest detection in blood plasma: 30 min
  latest detection in blood plasma: 3 h
[3]; po 2 mg, fifteen minutes
  presence in serum by HPLC: revealed the presence of BzFβ
